One assay concerns the target T1, SlLYK10c-YFP.
T1 construct: gene LYK10; SlLYK10 extracellular region fused to TM/ICR of Medicago truncatula NFP, YFP kept (about 102 kDa with 6 predicted N-glycans); expressed in Nicotiana benthamiana leaves, membrane fraction; with Serine/threonine receptor-like kinase NFP (Medicago truncatula; transmembrane and intracellular region fused to the SlLYK10 extracellular region)
Put plainly: radioligand competition on membrane fractions. In kind it is binding, Solanum lycopersicum. The note with it: competition with LCO-V(C18:1,NMe,35S) 1-2 nM.

For the next assay, the target named is T2, PhLYK10-YFP.
T2 construct: gene LYK10; expressed in Nicotiana benthamiana leaves, membrane fraction
Put plainly: radioligand competition on membrane fractions. Type of assay: binding, Petunia hybrida. The note with it: competition with LCO-V(C18:1,NMe,35S) 1-2 nM; competitor tested at 1 μM only; pH 6. Background: In a radioligand displacement assay an active substance lowers the binding of a labelled ligand.

The mark [1] stands for this setting: competitor tested at 1 μM only, pH 6.
Where [2] appears, read: 25 mM Na-cacodylate pH 6, 1 mM CaCl2, 1 mM MgCl2, n = 3.

The results in this text go back to article PMC6926482, “LCO Receptors Involved in Arbuscular Mycorrhiza Are Functional for Rhizobia Perception in Legumes” (Current Biology, 2019).

Consider `CC(=O)N[C@H]1[C@H](O[C@H]2[C@H](O)[C@@H](NC(C)=O)C(O)O[C@@H]2CO)O[C@H](CO)[C@@H](O[C@@H]2O[C@H](CO)[C@@H](O[C@@H]3O[C@H](CO)[C@@H](O)[C@H](O)[C@H]3NC(C)=O)[C@H](O)[C@H]2NC(C)=O)[C@@H]1O` (stereo partly drawn) [CO4], for which the Ki on SlLYK10c-YFP (setting [1]) and on PhLYK10-YFP was above 1000 nM in each case.
For `CCCCCCCCCCCCCCCC(=O)N[C@H]1[C@H](O[C@H]2[C@H](O)[C@@H](NC(C)=O)[C@H](O[C@H]3[C@H](O)[C@@H](NC(C)=O)[C@H](O[C@H]4[C@H](O)[C@@H](NC(C)=O)C(O)O[C@@H]4CO)O[C@@H]3CO)O[C@@H]2CO)O[C@H](CO)[C@@H](O)[C@@H]1O` (stereo partly drawn) [LCO-IV(C16:0)], the affinity on SlLYK10c-YFP (setting [2]) corresponds to a Ki of 354 ± 60 nM.
On to `CCCCCCCCCCCCCCCC(=O)N[C@H]1[C@H](O[C@H]2[C@H](O)[C@@H](NC(C)=O)[C@H](O[C@H]3[C@H](O)[C@@H](NC(C)=O)[C@H](O[C@H]4[C@H](O)[C@@H](NC(C)=O)C(O)O[C@@H]4COS(=O)(=O)O)O[C@@H]3CO)O[C@@H]2CO)O[C@H](CO)[C@@H](O)[C@@H]1O` (stereo partly drawn) [LCO-IV(C16:0,S)], for which the affinity on SlLYK10c-YFP (setting [2]) corresponds to a Ki of 192 ± 52 nM.
With `CC(=O)N[C@H]1[C@H](O[C@H]2[C@H](O)[C@@H](NC(C)=O)[C@H](O[C@H]3[C@H](O)[C@@H](NC(C)=O)[C@H](O[C@H]4[C@H](O)[C@@H](NC(C)=O)C(O)O[C@@H]4CO)O[C@@H]3CO)O[C@@H]2CO)O[C@H](CO)[C@@H](O[C@@H]2O[C@H](CO)[C@@H](O[C@@H]3O[C@H](CO)[C@@H](O[C@@H]4O[C@H](CO)[C@@H](O[C@@H]5O[C@H](CO)[C@@H](O)[C@H](O)[C@H]5NC(C)=O)[C@H](O)[C@H]4NC(C)=O)[C@H](O)[C@H]3NC(C)=O)[C@H](O)[C@H]2NC(C)=O)[C@@H]1O` (stereo partly drawn) [CO8], the inhibition constant Ki at SlLYK10c-YFP (setting [1]) and at PhLYK10-YFP was above 1000 nM in each case.
